Results reported in the Deep4Chem optical property database.
One block for each compound: values may come before it.

Test: solvent given as SMILES

- absorption maximum (in CO): 295 nm
Structure (SMILES): Cc1ccc(-c2nc(-c3ccc(O)cc3)[nH]c2-c2ccc(C)cc2)cc1

- absorption maximum (in C1CCOC1): 373 nm
Structure (SMILES): c1ccc2c(c1)-c1ccccc1C21c2ccccc2-c2sc3c(c21)C1(c2ccccc2-c2ccccc21)c1ccccc1-3

- absorption maximum (in CCCCCC): 675 nm
- absorption maximum (in ClCCl): 683 nm
Structure (SMILES): CC(C)[Si](C#Cc1c2cc3ccccc3cc2c(C#C[Si](C(C)C)(C(C)C)C(C)C)c2nc3cc4c(cc3nc12)C1c2ccccc2C4c2ccccc21)(C(C)C)C(C)C

- absorption maximum (in CCO): 590 nm
- absorption maximum (in ClCCl): 587 nm
- absorption maximum (in O): 588 nm
Structure (SMILES): CCOC(=O)c1ccccc1-c1c2ccc(=[N+](CC)CC)cc-2oc2c1oc1cc(N)ccc12

- absorption maximum (in ClC(Cl)Cl): 691 nm
Structure (SMILES): CCCCOC(=O)/C(C#N)=C1\C(=CC2=[N+](C)c3ccccc3C2(C)C)C([O-])=C1C=C1N(C)c2ccccc2C1(C)C

- absorption maximum (in CC#N): 378 nm
Structure (SMILES): CCOC(=O)c1c2c3c(ccc(OC)c3c3cc4c(cc13)[Si](C)(C)O[Si]4(C)C)N(C)C2=O

- absorption maximum (in ClCCl): 514 nm
Structure (SMILES): CN(C)c1ccc(C#CC2=C3CCc4ccccc4C3=[O+][B-](F)(F)O2)cc1

- absorption maximum (in ClCCl): 731 nm
Structure (SMILES): COc1ccc(/C2=C3N=C(C(c4ccccc4)=C/3c3ccccc3)/C(c3ccc(OC)cc3)=c3\[nH]/c(c(-c4ccccc4)c3-c3ccccc3)=C(/c3ccc(OC)cc3)C3=N/C(=C(/c4ccc(OC)cc4)c4[nH]c2c(-c2ccccc2)c4-c2ccccc2)C(c2ccccc2)=C3c2ccccc2)cc1

- absorption maximum (in ClCCl): 410 nm
Structure (SMILES): CCCCC(CC)Cn1c2cc(C#N)ccc2c2ccc(C#Cc3ccc4ccc5cccc6ccc3c4c56)cc21 (stereo not given)

- absorption maximum (in C1CCCCC1): 413 nm
- absorption maximum (in C1CCOC1): 413 nm
- absorption maximum (in CC#N): 410 nm
- absorption maximum (in ClC(Cl)Cl): 413 nm
- absorption maximum (in c1ccccc1): 415 nm
Structure (SMILES): Cc1cc(C)c(B(c2c(C)cc(C)cc2C)c2cc3ccc4ccccc4c3c3c2ccc2ccccc23)c(C)c1

Structure (SMILES): CCCCCCCCCCCCCCCC[n+]1ccc(/C=C/c2ccccc2O)cc1
- absorption maximum (in C1COCCO1): 558.2 nm
- absorption maximum (in CC(C)=O): 547 nm
- absorption maximum (in CC(C)O): 520.4 nm
- absorption maximum (in CCCCCC): 530.1 nm
- absorption maximum (in CCCCO): 523.4 nm
- absorption maximum (in CCCO): 518.9 nm
- absorption maximum (in CCO): 518.9 nm
- absorption maximum (in CN(C)C=O): 549.1 nm
- absorption maximum (in CO): 503.8 nm
- absorption maximum (in CS(C)=O): 523.4 nm
- absorption maximum (in Cc1ccccc1): 554.2 nm
- absorption maximum (in ClC(Cl)(Cl)Cl): 548.4 nm
- absorption maximum (in ClC(Cl)Cl): 554.2 nm
- absorption maximum (in ClCCl): 553.8 nm
- absorption maximum (in c1ccccc1): 553.7 nm

Structure (SMILES): Cc1ccc(N(c2cc(C(C)(C)C)ccc2C)c2ccc3ccc4c(N(c5ccc(C)cc5C)c5cc(C(C)(C)C)ccc5C)ccc5ccc2c3c54)c(C)c1
- absorption maximum (in Cc1ccccc1): 431 nm

- absorption maximum (in C1COCCO1): 445 nm
- absorption maximum (in CC#N): 448 nm
- absorption maximum (in ClCCl): 453 nm
Structure (SMILES): CN(C)c1ccc(/C=C/c2nc3cc(Br)ccc3nc2-c2ccccc2)cc1

Structure (SMILES): CC(=O)N(Cc1ccccn1)c1c2ccccc2c2c3c(cccc13)C(=O)N(Cc1ccccn1)C2=O
- absorption maximum (in C1CCOC1): 436 nm
- absorption maximum (in CCCCCC): 432 nm
- absorption maximum (in CCO): 437 nm
- absorption maximum (in Cc1ccccc1): 437 nm
- absorption maximum (in ClCCl): 439 nm

- absorption maximum (in ClC(Cl)Cl): 310 nm
Structure (SMILES): C[Si](C)(C)c1sc([Si](C)(C)C)c2c1sc1ccsc12

- absorption maximum (in ClCCl): 445 nm
Structure (SMILES): CCN(CC)c1ccc2cc(-c3nc4cc(C(=O)Nc5ccc(C)cc5[N+](=O)[O-])ccc4o3)c(=O)oc2c1

Structure (SMILES): CCC1=C(C)C2=Cc3c(I)c(I)cn3[B-](F)(F)[N+]2=C1C
- absorption maximum (in C1CCCCC1): 527.5 nm
- absorption maximum (in CC(C)=O): 509 nm
- absorption maximum (in CCO): 517.5 nm
- absorption maximum (in CCOC(C)=O): 515 nm
- absorption maximum (in CO): 513 nm
- absorption maximum (in OCC(F)(F)F): 501 nm

Structure (SMILES): CC(C)c1cc(C(C)C)c(B2c3ccccc3Oc3cc(N4c5ccccc5C5(c6ccccc6-c6ccccc65)c5ccccc54)ccc32)c(C(C)C)c1
- absorption maximum (in Cc1ccccc1): 430 nm

- absorption maximum (in CC#N): 376 nm
Structure (SMILES): COc1ccc(-c2csc(/C(C#N)=C/c3ccc(Cl)cc3)n2)cc1

- absorption maximum (in ClCCl): 350 nm
Structure (SMILES): COc1ccc(C2=Cc3ccccc3[Si]2(c2ccccc2)c2ccccc2)cc1

- absorption maximum (in C1CCOC1): 392 nm
Structure (SMILES): N#Cc1c(N2CCCC2)cc(-c2ccccc2)c2c1-c1ccccc1C2=O

- absorption maximum (in C1CCOC1): 538 nm
Structure (SMILES): FC(F)(F)C(F)(F)C(F)(F)c1nc2c(-c3ccsc3)cc3c4cc(-c5ccsc5)c5nc(C(F)(F)C(F)(F)C(F)(F)F)nc6c(-c7ccsc7)cc(c7cc(-c8ccsc8)c(n1)c2c37)c4c56

- absorption maximum (in ClCCl): 382 nm
Structure (SMILES): O=c1c2cccc3cccc(c32)c2nc3c(F)c(F)c(F)c(F)c3n12

- absorption maximum (in O): 337 nm
Structure (SMILES): COc1ccc2ccc([O-])cc2c1

- absorption maximum (in ClC(Cl)Cl): 372 nm
Structure (SMILES): Cc1c2c(nc3ccccc13)-c1cc3c(cc1CC2)-c1nc2ccccc2c(C)c1CC3

Structure (SMILES): Cc1ccc(-n2c(-c3ccccc3N)nc3c4ccccc4c4ccccc4c32)cc1
- absorption maximum (in Cc1ccccc1): 311 nm

- absorption maximum (in C1CCOC1): 321.23 nm
Structure (SMILES): c1ccc(-c2nc(-c3ccccc3)nc(-n3c4ccccc4c4cc(-n5c6ccccc6c6ccccc65)ccc43)n2)cc1

- absorption maximum (in CO): 400 nm
Structure (SMILES): Cc1cc(C)c(B(c2cc(C#Cc3ccccc3)sc2-c2sc(C#Cc3ccccc3)cc2P(=O)(c2ccccc2)c2ccccc2)c2c(C)cc(C)cc2C)c(C)c1

Structure (SMILES): COc1ccc(C2=C(c3ccc(C)cc3)C(c3ccccc3)=[N+]3C2=Nc2c(-c4ccc(OC)cc4)c(-c4ccc(C)cc4)c(-c4ccccc4)n2[B-]3(F)F)cc1
- absorption maximum (in Cc1ccccc1): 656 nm

- absorption maximum (in C1CCOC1): 366 nm
Structure (SMILES): CCCCOc1c(-c2c(OCCCC)c3oc4cc5ccccc5cc4c3c3ccccc23)c2ccccc2c2c1oc1cc3ccccc3cc12

Structure (SMILES): CC1(C)c2ccccc2N(c2ccccc2)c2ccc(-c3ccc(S(=O)(=O)c4ccc(-c5ccc6c(c5)C(C)(C)c5ccccc5N6c5ccccc5)cc4)cc3)cc21
- absorption maximum (in Cc1ccccc1): 363.38 nm

- absorption maximum (in ClCCl): 363 nm
Structure (SMILES): CCCCn1c(-c2ccc(-c3nnc(-c4ccc5ccccc5c4)o3)cc2)nc2c3ccccc3c3ccccc3c21

- absorption maximum (in CCO): 330 nm
Structure (SMILES): COC(=O)CCC(NC(=O)CCNc1cccc2ccccc12)C(=O)OC (stereo not given)

- absorption maximum (in CO): 327 nm
Structure (SMILES): COc1ccc(-c2nc(-c3cccc(C#N)c3)[nH]c2-c2ccc(OC)cc2)cc1

Structure (SMILES): CCCCc1ccc(-n2c3c(c4c2c2c(n4-c4ccc(CCCC)cc4)-c4cc(F)ccc4NB2c2ccccc2)B(c2ccccc2)Nc2ccc(F)cc2-3)cc1
- absorption maximum (in Cc1ccccc1): 395 nm

- absorption maximum (in ClCCl): 373 nm
Structure (SMILES): COC(=O)[C@H](Cc1ccccc1)Nc1c(C(C)=O)c(=O)oc2cc(N(C)C)ccc12

- absorption maximum (in C1CCOC1): 380 nm
Structure (SMILES): [O-]c1ccccc1/C=N/c1ccccc1/N=C/c1ccccc1[O-]

- absorption maximum (in CCCCCC): 284 nm
- absorption maximum (in CCCCO): 289 nm
- absorption maximum (in CCO): 290 nm
- absorption maximum (in CCOC(C)=O): 288 nm
- absorption maximum (in ClCCl): 284 nm
Structure (SMILES): COc1cccc(-n2c(-c3ccc(F)cc3)nc(C)c2C)c1

Structure (SMILES): c1cc2ccc3ccc4cc3c2cc1CCCCCCc1ccc2ccc3ccc-4cc3c2c1
- absorption maximum (in Cc1ccccc1): 336 nm

- absorption maximum (in CCCCCC): 305 nm
Structure (SMILES): C/C=C/c1ccc(OC)cc1

- absorption maximum (in CCOC(C)=O): 384 nm
Structure (SMILES): c1cc2ccc3cc4[nH]ccc4c4ccc(c1)c2c34

- absorption maximum (in ClC(Cl)Cl): 613 nm
Structure (SMILES): Cc1cc2c(o1)=CC1=C(C(F)(F)F)c3cc4oc(C)cc4n3[B-](F)(F)[N+]=21

- absorption maximum (in ClC(Cl)Cl): 385 nm
Structure (SMILES): CC(C)(C)NC(=O)c1cc2ccc3cccc4ccc(c1C(=O)NC(C)(C)C)c2c34

- absorption maximum (in ClCCl): 364 nm
Structure (SMILES): CC(C)(C)NC(=O)c1ccc(-c2cc3ccccc3o2)c2ccc3c4ccccc4c4ccccc4c3c12

- absorption maximum (in ClCCl): 375 nm
Structure (SMILES): c1ccc(-c2c3ccccc3c(-c3ccc4ccccc4c3)c3ccccc23)nc1

Structure (SMILES): COc1cc2c(cc1C=C(C#N)C#N)c1ccccc1n2C
- absorption maximum (in C1CCOC1): 423 nm
- absorption maximum (in CC#N): 422 nm
- absorption maximum (in CCOC(C)=O): 420 nm
- absorption maximum (in CN(C)C=O): 428 nm
- absorption maximum (in CO): 425 nm
- absorption maximum (in CS(C)=O): 427 nm
- absorption maximum (in Cc1ccccc1): 425 nm
- absorption maximum (in ClC(Cl)Cl): 430 nm
- absorption maximum (in ClCCl): 427 nm

- absorption maximum (in ClC(Cl)Cl): 332 nm
Structure (SMILES): CCCCn1c2ccccc2c2ccc3c4cc(-c5ccc6ccccc6c5)ccc4n(CCCC)c3c21

- absorption maximum (in ClC(Cl)Cl): 448 nm
Structure (SMILES): Cc1c2c(c(C)c3ccccc13)-c1cc3nc4ccccc4nc3cc1-2

- absorption maximum (in ClCCl): 401 nm
Structure (SMILES): COC(=O)c1[nH]c(-c2ccc(OC)cc2)c2nnc3ccc(OC)cc3c12

Structure (SMILES): CC1=[N+]2C(=C(c3ccc(-c4c5ccccc5c(-c5ccccc5)c5ccccc45)cc3)c3ccc(C)n3[B-]2(F)F)C=C1
- absorption maximum (in CC#N): 508 nm
- absorption maximum (in CCCCCC): 512 nm
- absorption maximum (in CCO): 511 nm
- absorption maximum (in CN(C)C=O): 512 nm
- absorption maximum (in Cc1ccccc1): 516 nm
- absorption maximum (in ClCCl): 513 nm

Structure (SMILES): COc1ccc(-c2c3ccc([nH]3)c3nc(c(-c4ccc([N+](=O)[O-])cc4)c4ccc([nH]4)c4ccc([nH]4)c(-c4ccc(OC)cc4)c4ccc2o4)C=C3)cc1
- absorption maximum (in C1CCOC1): 446 nm
- absorption maximum (in Cc1ccccc1): 448 nm
- absorption maximum (in c1ccccc1): 448 nm

Structure (SMILES): CC1(C)c2ccccc2N(c2ccc(-c3cccc(C#N)c3)cc2)c2ccccc21
- absorption maximum (in Cc1ccccc1): 344 nm

- absorption maximum (in CCCCCCC): 469 nm
Structure (SMILES): c1ccc2cc3c(cc2c1)-c1cccc2cc4ccccc4c-3c12

- absorption maximum (in ClCCl): 365 nm
Structure (SMILES): c1ccc(-n2c3ccccc3c3cc(-c4cccc(-n5c6cccnc6c6c7sc8ccccc8c7ccc65)c4)ccc32)cc1

- absorption maximum (in CC#N): 525 nm
- absorption maximum (in CCO): 526 nm
- absorption maximum (in CN(C)C=O): 535 nm
- absorption maximum (in O): 550 nm
Structure (SMILES): CCN(CC)c1ccc2cc3ccc(=[N+](CC)CC)cc-3oc2c1

Structure (SMILES): c1ccc(N2c3ccccc3Sc3cc(-c4cccc5nc6ccccc6cc45)ccc32)cc1
- absorption maximum (in C1CCOC1): 407 nm
- absorption maximum (in CC#N): 407 nm
- absorption maximum (in CC(C)=O): 407 nm
- absorption maximum (in CC(C)OC(C)C): 407 nm
- absorption maximum (in CCCCCC): 407 nm
- absorption maximum (in CCCCOCCCC): 407 nm
- absorption maximum (in CCN(CC)CC): 407 nm
- absorption maximum (in CCOC(C)=O): 407 nm
- absorption maximum (in CCOCC): 407 nm
- absorption maximum (in CN(C)C=O): 407 nm
- absorption maximum (in ClCCl): 407 nm

- absorption maximum (in CCCCCC): 608 nm
- absorption maximum (in CCCCCCCCO): 612 nm
- absorption maximum (in CCOC(C)=O): 606 nm
- absorption maximum (in CN(C)C=O): 612 nm
- absorption maximum (in ClCCl): 612 nm
Structure (SMILES): CC1=CC(C)=[N+]2C1=Cc1c3ccccc3c(C#Cc3ccccc3)n1[B-]2(F)F
